Source: the supplement of paper PMC5908809

Legend:
Settings in all cases: 72 h
KHYG-1 (IL-2 2.5 ng/mL) [1] = test: percent inhibition of viability; higher = more inhibition
NK-92 (IL-2 2.5 ng/mL) [2] = test: as above
YT (IL-2 2.5 ng/mL) [3] = test: as above
KAI3 (IL-2 2.5 ng/mL) [4] = test: as above
[5] = system: normal primary NK cells, pool 1 (3 donors) (IL-2 2.5 ng/mL); test: as above
SNK-6 (IL-2 2.5 ng/mL) [6] = test: as above
DERL-7 (IL-2 2.5 ng/mL) [7] = test: as above
NKL (IL-2 2.5 ng/mL) [8] = test: as above
[9] = system: normal primary NK cells, pool 1 (3 donors), resting (IL-2 0 ng/mL); test: as above
NK-YS (IL-2 2.5 ng/mL) [10] = test: as above
KHYG-1 (IL-2 2.5 ng/mL) [11] = test: drug sensitivity score (DSS) (DSS units); higher = more sensitive; extreme values may be limits of the assay
NK-92 (IL-2 2.5 ng/mL) [12] = test: as above
YT (IL-2 2.5 ng/mL) [13] = test: as above
KAI3 (IL-2 2.5 ng/mL) [14] = test: as above
[15] = system: normal primary NK cells, pool 1 (3 donors) (IL-2 2.5 ng/mL); test: as above
SNK-6 (IL-2 2.5 ng/mL) [16] = test: as above
DERL-7 (IL-2 2.5 ng/mL) [17] = test: as above
NKL (IL-2 2.5 ng/mL) [18] = test: as above
[19] = system: normal primary NK cells, pool 1 (3 donors), resting (IL-2 0 ng/mL); test: as above
NK-YS (IL-2 2.5 ng/mL) [20] = test: as above
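Throughout, for percent inhibition of viability: normalised to DMSO-only wells as negative and benzethonium chloride as positive control.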

CC1(C)CCC(CN2CCN(c3ccc(C(=O)NS(=O)(=O)c4ccc(NCC5CCOCC5)c([N+](=O)[O-])c4)c(Oc4cnc5[nH]ccc5c4)c3)CC2)=C(c2ccc(Cl)cc2)C1 [Venetoclax] (max concentration tested 10000 nM)
percent inhibition of viability [%]
Settings | DERL-7 (IL-2 2.5 ng/mL) [7] | KAI3 (IL-2 2.5 ng/mL) [4] | KHYG-1 (IL-2 2.5 ng/mL) [1] | NK-92 (IL-2 2.5 ng/mL) [2] | NK-YS (IL-2 2.5 ng/mL) [10] | NKL (IL-2 2.5 ng/mL) [8] | SNK-6 (IL-2 2.5 ng/mL) [6] | YT (IL-2 2.5 ng/mL) [3] | [5] | [9]
1 nM | 1.21 | 27.7 | -4.77 | -4.75 | 4.6 | 5.96 | 10.4 | 3.82 | -1.92 | -13.2
10 nM | 17 | 55.8 | -0.91 | 2.95 | 3.22 | 19.3 | 48.6 | 7.84 | -1.34 | 53.6
100 nM | 36.3 | 71 | 1.35 | 18.2 | 6.71 | 45.6 | 50.4 | 10.9 | 4.44 | 87.3
1000 nM | 54.6 | 91.3 | 29.1 | 17 | 25.8 | 55.5 | 74.7 | 67.4 | 36.7 | 91.6
10000 nM | 87.8 | 98.7 | 82.5 | 66.6 | 82.6 | 85.8 | 96.6 | 88.4 | 67.1 | 91.2

Settings | drug sensitivity score
DERL-7 (IL-2 2.5 ng/mL) [17] | 16.2
KAI3 (IL-2 2.5 ng/mL) [14] | 33.6
KHYG-1 (IL-2 2.5 ng/mL) [11] | 8.64
NK-92 (IL-2 2.5 ng/mL) [12] | 5.65
NK-YS (IL-2 2.5 ng/mL) [20] | 7.95
NKL (IL-2 2.5 ng/mL) [18] | 18.4
SNK-6 (IL-2 2.5 ng/mL) [16] | 26.1
YT (IL-2 2.5 ng/mL) [13] | 14.1
[15] | 8.04
[19] | 34.5

CN(C)C(=O)c1cc2cnc(Nc3ccc(N4CCNCC4)cn3)nc2n1C1CCCC1 [NVP-LEE011] (max concentration tested 10000 nM)
percent inhibition of viability [%]
Settings | DERL-7 (IL-2 2.5 ng/mL) [7] | KAI3 (IL-2 2.5 ng/mL) [4] | KHYG-1 (IL-2 2.5 ng/mL) [1] | NK-92 (IL-2 2.5 ng/mL) [2] | NK-YS (IL-2 2.5 ng/mL) [10] | NKL (IL-2 2.5 ng/mL) [8] | SNK-6 (IL-2 2.5 ng/mL) [6] | YT (IL-2 2.5 ng/mL) [3] | [5] | [9]
1 nM | -3.18 | -3.87 | -4.23 | -9.54 | -2.35 | -12.3 | -8.9 | -3.41 | 4.32 | 7.64
10 nM | 4.13 | 1.07 | 0.91 | -16.1 | -0.02 | -11.2 | 3.64 | -2.71 | 8.46 | 12.1
100 nM | 1.76 | -4.85 | -1.06 | -4.22 | 5.18 | -15 | -2.64 | -0.92 | 8.7 | 17.7
1000 nM | 11.2 | 4.66 | 37.5 | 15.8 | 22.1 | -6.48 | 12.5 | 9.6 | 6.05 | 14.8
10000 nM | 41.6 | 29.2 | 81.3 | 20.8 | 48 | 47.9 | 19.8 | 42.3 | 51.8 | 51.6

Settings | drug sensitivity score
DERL-7 (IL-2 2.5 ng/mL) [17] | 3.81
KAI3 (IL-2 2.5 ng/mL) [14] | 2
KHYG-1 (IL-2 2.5 ng/mL) [11] | 9.33
NK-92 (IL-2 2.5 ng/mL) [12] | 2.18
NK-YS (IL-2 2.5 ng/mL) [20] | 4.9
NKL (IL-2 2.5 ng/mL) [18] | 2.07
SNK-6 (IL-2 2.5 ng/mL) [16] | 1.78
YT (IL-2 2.5 ng/mL) [13] | 3.67
[15] | 3.77
[19] | 6.2
